Some test systems named below: NCI-H522 lung; SK-MEL-2 melanoma; KM12 colon; MOLT-4 leukemia; SK-MEL-5 melanoma; HT29 colon; COLO 205 colon; HCT-15 colon; 786-0 renal; HOP-62 NSCLC; M14 melanoma; UACC-62 melanoma; RPMI-8226 leukemia; SR leukemia; OVCAR-3 ovarian.
What all share (test): NCI tumour cell line growth inhibition, 48 h

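The compound was tested at five concentrations on cells cultured in 96-well plates, with a 48-hour exposure period. TGI: concentration producing complete growth inhibition.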

As to `O=C(N/N=C(/c1nc2ccc([N+](=O)[O-])cc2[nH]c1=O)C(O)c1ccc([N+](=O)[O-])cc1)c1ccncc1` (configuration not stated), the TGI in the test with NCI-H522 lung, with SK-MEL-2 melanoma, with KM12 colon, with MOLT-4 leukemia, with SK-MEL-5 melanoma and in the test on HT29 colon was > 100 µM in each case. Moreover, the TGI in the test with COLO 205 colon, in the test with HCT-15 colon, in the test on 786-0 renal, with HOP-62 NSCLC, in the test on M14 melanoma and in the test with UACC-62 melanoma was > 100 µM each time. Also, the TGI in the test on RPMI-8226 leukemia and in the test on SR leukemia was > 100 µM in each case.

In the case of `C/C(=N/NC(=O)C[n+]1ccccc1)C(CN(CC(C)C)CC(C)C)C(=O)Nc1ccc(C)cc1C` (configuration not stated), the TGI in the test on NCI-H522 lung, in the test with SK-MEL-2 melanoma, in the test with MOLT-4 leukemia, in the test on SK-MEL-5 melanoma, with HT29 colon and with COLO 205 colon was > 100 µM throughout. Also, the TGI in the test on 786-0 renal, in the test with HOP-62 NSCLC, with M14 melanoma, in the test on UACC-62 melanoma, in the test on RPMI-8226 leukemia and with SR leukemia was > 100 µM each time.

For the compound `CCOC(=O)c1cnc2c(ccc3[nH]cccc32)c1=O`, the TGI with NCI-H522 lung, in the test with SK-MEL-2 melanoma, in the test with KM12 colon, in the test with MOLT-4 leukemia, with SK-MEL-5 melanoma and with HT29 colon was > 100 µM throughout. Moreover, the TGI in the test with COLO 205 colon, in the test on HCT-15 colon, in the test on 786-0 renal, in the test on HOP-62 NSCLC, in the test with OVCAR-3 ovarian and in the test on M14 melanoma was > 100 µM throughout. In addition, the TGI in the test with UACC-62 melanoma and in the test with SR leukemia was > 100 µM in each case.

Turning to `Cc1ccc(NC(=O)CSc2nnc(Cc3ccccc3)o2)cc1`, the TGI in the test on NCI-H522 lung, in the test with SK-MEL-2 melanoma, in the test with KM12 colon, in the test with MOLT-4 leukemia, in the test on SK-MEL-5 melanoma and in the test with HT29 colon was > 100 µM throughout. For the same compound, the TGI with COLO 205 colon, in the test with HCT-15 colon, in the test with 786-0 renal, in the test on HOP-62 NSCLC, in the test with OVCAR-3 ovarian and with M14 melanoma was > 100 µM throughout. For the same compound, the TGI in the test on UACC-62 melanoma and in the test with RPMI-8226 leukemia was > 100 µM in each case.

`CCCCNC(=NCc1ccccc1)NC#N`: the TGI in the test on NCI-H522 lung, with SK-MEL-2 melanoma, with KM12 colon, in the test with MOLT-4 leukemia, with SK-MEL-5 melanoma and with HT29 colon was > 100 µM throughout. In addition, the TGI with COLO 205 colon, in the test on HCT-15 colon, in the test on 786-0 renal, in the test with HOP-62 NSCLC, in the test with OVCAR-3 ovarian and in the test with M14 melanoma was > 100 µM throughout. Also, the TGI in the test on UACC-62 melanoma, with RPMI-8226 leukemia and with SR leukemia was > 100 µM in each case.

In the case of `Clc1ccc(CCc2ccncn2)c(Cl)c1`, the TGI in the test with NCI-H522 lung is > 100 µM; in the test with SK-MEL-2 melanoma, > 100 µM; in the test on KM12 colon, > 100 µM; with MOLT-4 leukemia, > 100 µM; in the test on SK-MEL-5 melanoma, 51.2 µM; in the test on HT29 colon it was > 100 µM. The TGI with COLO 205 colon, in the test on HCT-15 colon, in the test on 786-0 renal, in the test with HOP-62 NSCLC, in the test on OVCAR-3 ovarian and in the test with M14 melanoma was > 100 µM in each case. Moreover, the TGI in the test with UACC-62 melanoma and in the test with RPMI-8226 leukemia was > 100 µM each time.

Turning to `Oc1cc(CN2CCOCCOCCOCCOCC2)c(O)cc1CN1CCOCCOCCOCCOCC1`, the TGI with NCI-H522 lung was 31.6 µM; in the test on SK-MEL-2 melanoma it was > 93.4 µM; in the test on KM12 colon, > 100 µM; in the test on MOLT-4 leukemia, 52.6 µM; in the test on SK-MEL-5 melanoma, > 100 µM; in the test on HT29 colon, > 73.3 µM. Moreover, the TGI with COLO 205 colon was 39.6 µM; in the test on HCT-15 colon, > 67.4 µM; in the test with 786-0 renal, 58.5 µM; in the test on HOP-62 NSCLC it was > 100 µM; in the test on OVCAR-3 ovarian, > 100 µM; in the test on M14 melanoma it was 38.9 µM. Moreover, the TGI in the test on UACC-62 melanoma is > 72.2 µM; with RPMI-8226 leukemia, 63.8 µM; with SR leukemia, 43.8 µM.

Turning to `O=C(Cc1ccc([N+](=O)[O-])c([N+](=O)[O-])c1CC(=O)C(=O)Nc1cc(Cl)ccc1Cl)C(=O)Nc1cc(Cl)ccc1Cl`, the TGI is > 100 µM with SK-MEL-2 melanoma; > 100 µM with KM12 colon; > 100 µM in the test with MOLT-4 leukemia; > 100 µM in the test with SK-MEL-5 melanoma; > 100 µM with HT29 colon; 52.5 µM with COLO 205 colon. For the same compound, the TGI in the test on HCT-15 colon was 45.1 µM; with 786-0 renal, > 100 µM; in the test on HOP-62 NSCLC, > 100 µM; with OVCAR-3 ovarian, > 100 µM; with M14 melanoma, > 100 µM; in the test with UACC-62 melanoma it was > 100 µM. Besides, the TGI with RPMI-8226 leukemia and in the test with SR leukemia was > 100 µM throughout.

As to `CC(C)N(C(=O)C12C3C4C1C1C2C3C41I)C(C)C` (configuration not stated), the TGI in the test on NCI-H522 lung, in the test with KM12 colon, in the test on MOLT-4 leukemia, in the test with SK-MEL-5 melanoma, in the test on HT29 colon and in the test with COLO 205 colon was > 100 µM in each case. In addition, the TGI in the test with 786-0 renal, in the test on OVCAR-3 ovarian, with M14 melanoma, in the test on UACC-62 melanoma and in the test on SR leukemia was > 100 µM in each case.

Turning to `C#CCNC(=O)NCCCCC(NC(C)=O)C(=O)NCc1ccccc1` (configuration not stated), the TGI with NCI-H522 lung, in the test on KM12 colon, with MOLT-4 leukemia, in the test with SK-MEL-5 melanoma, in the test on HT29 colon and in the test with COLO 205 colon was > 100 µM each time. The TGI in the test on HCT-15 colon, in the test on 786-0 renal, with HOP-62 NSCLC, in the test on OVCAR-3 ovarian, with M14 melanoma and in the test with UACC-62 melanoma was > 100 µM each time. Moreover, the TGI with RPMI-8226 leukemia and in the test with SR leukemia was > 100 µM each time.

The values are drawn from PubChem BioAssay (NCI).
